Measurements published in patent publication US12116636B2, “Methods for evaluating tumor cell spheroids using 3D microfluidic cell culture device” (Dana-Farber Cancer Institute, Inc., priority 2017, dated 2024).

Tested on: PDOTS
Assay: Bead-based cytokine profiling of PDOTS conditioned media
Format: cell-based, human
Method: Fresh tumor specimens (murine and human patients) were received in media (DMEM) on ice and minced in a 10 cm dish (on ice) using sterile forceps and scalpel. Minced tumor was resuspended in DMEM (4.5 mM glucose, […] sodium pyruvate, 1:100 penicillin-streptomycin) (Coming CellGro, Manassas, VA)+10% FBS (Gemini Bio-Products, West Sacramento, CA), 100 U/mL collagenase type IV (Life Technologies, Carlsbad, CA), and 15 mM HEPES (Life Technologies, Carlsbad, CA), except for CT26 tumors that were prepared in RPMI. Samples were pelleted and resuspended in 10-20 mL media. Red blood cells were removed from visibly bloody samples using RBC Lysis Buffer (Boston Bio-Products, Ashland, MA). […]
Two multiplex assays were performed utilizing a bead-based immunoassay approach, the Bio-Plex Pro™ Human Cytokine 40-plex Assay (Cat #171AK99MR2) and Bio-Plex Pro™ Mouse Cytokine Panel 1, 23-plex (Cat #M60009RDPD) on a Bio-plex 200 system (Cat #171000201). […] Fold changes relative to the MDOT/PDOT control were calculated and plotted as log 2FC. Lower and upper limits of quantitation (LLOQ/ULOQ) were imputed from standard curves for cytokines above or below detection. […]

Substance | PDOTS samples with upregulation of CCL19 and CXCL13 (Day 3 cytokine release, n=28) | CCL19/CXCL13 induction in PDOTS (Day 3, relative to untreated control)
pembrolizumab [PD-1 blockade] | 23/28 | 
ipilimumab [CTLA-4 blockade] |  | comparatively minimal
